The subject of the first assay is EboV.
For the compound `CCCCc1oc2ccccc2c1C(=O)c1cc(I)c(OCCN(CC)CC)c(I)c1` [amiodarone], the anti-EboV activity result is “weak anti-EboV activity”.
Same read-out and setting: then `CCOC(=O)C1=C(COCCN)NC(C)=C(C(=O)OC)C1c1ccccc1Cl` (stereo not drawn) [amlodipne], with “weak anti-EboV activity”; and `COc1ccc([C@@H]2Sc3ccccc3N(CCN(C)C)C(=O)[C@@H]2OC(C)=O)cc1` [diltiazen], with “weak anti-EboV activity”.

In another assay the test system is VSV luc particles bearing the native VSV G glycoprotein. The format is cell-based, vesicular stomatitis virus.
Regarding `CCOc1ccc(S(=O)(=O)N(C)c2ccc(OCC(=O)N(C)C3CCN(C)CC3)cc2)cc1` [compound 6], the “specificity for EboV GP versus VSV G particles” value is recorded as “EboV specific”.
Take `Oc1ccc(/C=N/n2c(-c3ccco3)cs/c2=N\c2ccc(F)cc2F)c(O)c1` [compound 7]: the “specificity for EboV GP versus VSV G particles” value is “EboV specific”.
Turning to `COC(=O)c1ccc(-c2ccco2)n1Cc1cccc(F)c1` [compound 8], the “specificity for EboV GP versus VSV G particles” value is reported as “EboV specific”.

For the origin of these results see patent US9676763B2 (priority 2010, dated 2017).
